# Read-outs that look alike come from different tables or passages of the source.
# Experiments:
# [1] = tested on: platelets; test: Platelet levels in mice after five once daily i.p. injections; format: in vivo, mice (Hsd:Athymic Nude-Foxnlnu); conditions: blood 60 minutes after last administration
# Description: On the fifth day, 60 minutes after the administration, mice were sacrificed and blood was collected in sodium citrate-containing tubes for hemogram analysis. […] Platelet levels were determined in a standard hematology analyzer (Abacus Junior Vet, from Diatron) following the manufacturer's instructions.
# (§1) 20% 2-hydroxypropyl-j3-cyclodextrin in H2O was used as a vehicle. When necessary, 10% DMSO was also added in the vehicle. Each day, compounds were administered in a single intraperitoneal injection with administration volumes of 15 ml/kg.
# (§2) Mice strain was Hsd:Athymic Nude-Foxnlnu. Animals were maintained in air and temperature controlled cages with regular supply of water and food.
# [2] = biological target: T1, Human recombinant monoamine oxidase MAO-A (Homo sapiens, UniProt P21397); test: MAO-A inhibition, kynuramine fluorescence assay; format: biochemical
# T1 construct: purchased Sigma Aldrich
# T1 sequence (P21397 1-527): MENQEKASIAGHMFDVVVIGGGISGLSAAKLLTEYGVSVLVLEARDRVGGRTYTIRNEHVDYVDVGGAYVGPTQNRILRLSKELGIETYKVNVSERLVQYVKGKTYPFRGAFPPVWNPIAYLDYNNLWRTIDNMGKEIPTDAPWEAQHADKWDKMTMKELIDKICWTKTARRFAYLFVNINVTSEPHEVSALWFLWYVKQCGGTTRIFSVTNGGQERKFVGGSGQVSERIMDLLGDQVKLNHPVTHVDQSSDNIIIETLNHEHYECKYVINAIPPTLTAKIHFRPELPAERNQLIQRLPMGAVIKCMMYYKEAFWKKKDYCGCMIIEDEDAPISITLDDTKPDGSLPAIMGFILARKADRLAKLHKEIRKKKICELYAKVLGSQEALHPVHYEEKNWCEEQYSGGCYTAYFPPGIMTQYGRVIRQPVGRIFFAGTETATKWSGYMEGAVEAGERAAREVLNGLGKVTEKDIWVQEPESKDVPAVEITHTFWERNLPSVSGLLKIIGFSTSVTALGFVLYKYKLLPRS
# Source text: (§3) Human recombinant monoamine oxidase proteins MAO-A and MAO-B were purchased from Sigma Aldrich. MAOs catalyze the oxidative deamination of primary, secondary and tertiary amines. In order to monitor MAO enzymatic activities and/or their inhibition rate by inhibitor(s) of interest, a fluorescent-based (inhibitor)-screening assay was set up. 3-(2-Aminophenyl)-3-oxopropanamine (kynuramine dihydrobromide, Sigma Aldrich), a non fluorescent compound was chosen as a substrate. Kynuramine is a non-specific substrate for both MAOs activities. While undergoing oxidative deamination by MAO activities, kynuramine is converted into 4-hydroxyquinoline (4-HQ), a resulting fluorescent product.
# (§4) The monoamine oxidase activity was estimated by measuring the conversion of kynuramine into 4-hydroxyquinoline. Assays were conducted in 96-well black plates with clear bottom (Corning) in a final volume of 100 μL. The assay buffer was 100 mM HEPES, pH 7.5. Each experiment was performed in duplicate within the same experiment.
# (§5) Briefly, a fixed amount of MAO (0.25 μg for MAO-A and 0.5 μg for MAO-B) was incubated on ice for 15 minutes in the reaction buffer, in the absence and/or in the presence of various concentrations of inhibitor (e.g., from 0 to 50 μM, depending on the inhibitor strength).
# (§6) After leaving the enzyme(s) interacting with the inhibitor, 60 to 90 μM of kynuramine was added to each reaction for MAO-B and MAO-A assay respectively, and the reaction was left for one hour at 37° C. in the dark. The oxidative deamination of the substrate was stopped by adding 50 μL (v/v) of NaOH 2N. The conversion of kynuramine to 4-hydroxyquinoline, was monitored by fluorescence (excitation at 320 nm, emission at 360 nm) using a microplate reader (Infinite 200, Tecan). Arbitrary units were used to measure levels of fluorescence produced in the absence and/or in the presence of inhibitor.
# (§7) The Ki (IC50) of each inhibitor was determined at Vmax/2.
# [3] = biological target: T2, Human recombinant LSD1 protein (Homo sapiens, UniProt O60341); test: LSD1 demethylase inhibition, Amplex Red peroxide/peroxidase-coupled assay; format: biochemical; conditions: further, more elaborate determination (Table 1)
# T2 construct: purchased BPS Bioscience Inc
# Source text: Compounds for use in the methods of the invention can be identified by their ability to inhibit LSD1. The ability of compounds to inhibit LSD1 can be tested as follows. Human recombinant LSD1 protein was purchased from BPS Bioscience Inc. In order to monitor LSD1 enzymatic activity and/or its inhibition rate by the LSD1 inhibitor(s) of interest, di-methylated H3-K4 peptide (Millipore) was chosen as a substrate. The demethylase activity was estimated, under aerobic conditions, by measuring the release of H2O2 produced during the catalytic process, using the Amplex® Red peroxide/peroxidase-coupled assay kit (Invitrogen).
# Within the experiment, each concentration of inhibitor was tested in duplicate. […] The enzymatic reactions were set up in a 50 mM sodium phosphate, pH 7.4 buffer. At the end of the incubation, Amplex® Red reagent and horseradish peroxidase (HPR) solution were added to the reaction according to the recommendations provided by the supplier (Invitrogen), and left to incubate for 30 extra minutes at room temperature in the dark. A 1 μM H2O2 solution was used as a control of the kit efficiency. The conversion of the Amplex® Red reagent to resorufin due to the presence of H2O2 in the assay, was monitored by fluorescence (excitation at 540 nm, emission at 590 nm) using a microplate reader (Infinite 200, Tecan). Arbitrary units were used to measure level of H2O2 produced in the absence and/or in the presence of inhibitor.
# The maximum demethylase activity of LSD1 was obtained in the absence of inhibitor and corrected for background fluorescence in the absence of LSD1. The Ki (IC50) of each inhibitor was estimated at half of the maximum activity.
# [4] = biological target: T3, Human recombinant monoamine oxidase MAO-B (Homo sapiens, UniProt P27338); test: MAO-B inhibition, kynuramine fluorescence assay; format: biochemical; conditions: further, more elaborate determination (Table 1)
# T3 construct: purchased Sigma Aldrich
# T3 sequence (P27338 1-520): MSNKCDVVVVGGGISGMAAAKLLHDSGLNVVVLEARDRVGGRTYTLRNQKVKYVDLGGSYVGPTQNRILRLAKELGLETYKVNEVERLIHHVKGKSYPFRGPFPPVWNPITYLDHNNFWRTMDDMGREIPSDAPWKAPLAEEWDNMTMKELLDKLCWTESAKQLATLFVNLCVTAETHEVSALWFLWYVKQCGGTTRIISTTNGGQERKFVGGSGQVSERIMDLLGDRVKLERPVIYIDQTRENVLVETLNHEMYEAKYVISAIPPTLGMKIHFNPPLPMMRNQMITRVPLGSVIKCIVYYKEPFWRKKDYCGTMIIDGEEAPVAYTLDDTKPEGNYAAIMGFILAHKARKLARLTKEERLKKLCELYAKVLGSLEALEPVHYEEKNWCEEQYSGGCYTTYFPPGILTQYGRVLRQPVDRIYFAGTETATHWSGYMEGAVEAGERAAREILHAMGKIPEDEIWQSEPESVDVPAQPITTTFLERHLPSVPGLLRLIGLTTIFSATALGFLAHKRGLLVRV
# Source text: as §3, §4, §5, §6, §7
# [5] = tested on: Lymphocytes; test: Lymphocyte levels in mice after five once daily injections; format: in vivo, mice (Hsd:Athymic Nude-Foxnlnu); conditions: five consecutive days
# Description: (§8) On the fifth day, 60 minutes after the administration, mice were sacrificed and blood was collected in sodium citrate-containing tubes for hemogram analysis. Platelet levels were determined and referred as % of platelets compared with the levels found in mice treated with vehicle. Platelet levels were determined in a standard hematology analyzer (Abacus Junior Vet, from Diatron) following the manufacturer's instructions.
# as §1, §2
# (§9) Measurements of all blood cell types were conducted in the same manner as described above for platelets. Data in the table above are expressed as the % of cells vs vehicle.
# [6] = tested on: White Blood Cells; test: White blood cell levels in mice after five once daily injections; format: in vivo, mice (Hsd:Athymic Nude-Foxnlnu); conditions: five consecutive days
# Description: as §8, §1, §2, §9
# [7] = tested on: Red blood cells; test: Red blood cell levels in mice after five once daily injections; format: in vivo, mice (Hsd:Athymic Nude-Foxnlnu); conditions: five consecutive days
# Description: as §8, §1, §2, §9
# [8] = tested on: Granulocytes; test: Granulocyte levels in mice after five once daily injections; format: in vivo, mice (Hsd:Athymic Nude-Foxnlnu); conditions: five consecutive days
# Description: as §8, §1, §2, §9
# [9] = tested on: H3K4 methylation in SH-SY5Y cells; test: Western blot for dimethylated H3K4 in SH-SY5Y cells; format: cell-based
# Source text: B-actin was used as a loading control.
# [10] = 20 mg/kg i.p. once daily for five days
# [11] = 40 mg/kg i.p. once daily for five days
# [12] = further, more elaborate determination (Table 1), read-out: MAO-A IC50
# [13] = 3 mg/kg i.p. once daily for five days
# [14] = 10 mg/kg i.p. once daily for five days
# [15] = 30 mg/kg i.p. once daily for five days
"IC50 [2, 12]",IC50 [3],IC50 [4],SMILES,"% platelets vs. Vehicle [1, 10]","% platelets vs. Vehicle [1, 11]","% platelets vs. Vehicle [1, 14]","% platelets vs. Vehicle [1, 15]",other results
> 2000 nM,< 200 nM,–,"NC(=O)CN[C@H]1C[C@@H]1c1ccc(OCc2ccccc2)cc1 (single isomer, unassigned) [Compound 2]",35%,27%,–,–,% platelets vs. Vehicle ([1]; 60 mg/kg i.p. once daily for five days): 16%
–,–,–,CS(=O)(=O)Nc1cccc(-c2ccc([C@H]3C[C@@H]3N)cn2)c1 (racemic) [Compound 8],68%,44%,–,–,–
> 2000 nM,< 100 nM,> 2000 nM,N[C@H]1CCN(CCN[C@H]2C[C@@H]2c2ccc(-c3cccc(C(F)(F)F)c3)cc2)C1 (racemic) [Compound 4],–,–,19%,7%,"% platelets vs. Vehicle [1, 13]: 87%; % platelets vs. Vehicle ([1]; 9 mg/kg i.p. once daily for five days): 30%; % platelets vs. Vehicle ([1]; 18 mg/kg i.p. once daily for five days): 19%; % platelets vs. Vehicle ([1]; 36 mg/kg i.p. once daily for five days): 11%"
–,–,–,N[C@H]1C[C@@H]1c1ccc(-c2cccc(C(F)(F)F)c2)nc1 (racemic) [Compound 6],–,–,87%,63%,–
> 2000 nM,< 200 nM,–,NC(=O)CN[C@H]1C[C@@H]1c1ccc(OCc2ccccc2)cc1 (racemic) [Compound 1],55%,34%,66%,–,"% platelets vs. Vehicle ([1]; 5 mg/kg i.p. once daily for five days): 91%; potency at increasing global dimethylated H3K4 levels as compared to tranylcypromine ([9]; Dual-1 at 100 μM vs parnate at 250 μM): ten-fold or more potent; H3K4 methylation (western blot) ([9]; compound at 100 μM, one, two, and three days): increases H3K4 methylation in cells in a time dependent manner"
> 1000 nM,< 70 nM,> 10000 nM,CC(C)S(=O)(=O)Nc1cccc(-c2ccc([C@H]3C[C@@H]3N)cc2)c1 (racemic) [Compound 9],–,–,–,10%,–

SMILES,"IC50 [2, 12]",IC50 [3],IC50 [4],"% platelets vs. Vehicle [1, 10]","% platelets vs. Vehicle [1, 11]","% platelets vs. Vehicle [1, 14]","% platelets vs. Vehicle [1, 15]",other results
CN1CCN(C(=O)CN[C@H]2C[C@@H]2c2ccc(OCc3ccccc3)cc2)CC1 (racemic) [Compound 3],> 2000 nM,–,–,–,–,5%,–,"Lymphocytes, % of cells vs vehicle ([5]; 1 mg/kg): 115%; Lymphocytes, % of cells vs vehicle ([5]; 3 mg/kg): 90%; Lymphocytes, % of cells vs vehicle ([5]; 10 mg/kg): 35%; % platelets vs. Vehicle ([1]; 1 mg/kg i.p. once daily for five days): 46%; % platelets vs. Vehicle [1, 13]: 16%; White Blood Cells, % of cells vs vehicle ([6]; 1 mg/kg): 86%; White Blood Cells, % of cells vs vehicle ([6]; 3 mg/kg): 76%; White Blood Cells, % of cells vs vehicle ([6]; 10 mg/kg): 29%; Red blood cells, % of cells vs vehicle ([7]; 1 mg/kg): 103%; Red blood cells, % of cells vs vehicle ([7]; 3 mg/kg): 101%; Red blood cells, % of cells vs vehicle ([7]; 10 mg/kg): 92%; Granulocytes, % of cells vs vehicle ([8]; 1 mg/kg): 69%; Granulocytes, % of cells vs vehicle ([8]; 3 mg/kg): 63%; Granulocytes, % of cells vs vehicle ([8]; 10 mg/kg): 23%"
N[C@H]1C[C@@H]1c1ccc(-c2cccc(O)c2)cc1 (racemic) [Compound 7],> 200 nM,< 70 nM,> 1000 nM,–,–,–,–,"% platelets vs. Vehicle ([1]; 17 mg/kg i.p. once daily for five days): 56%; % platelets vs. Vehicle ([1]; 34 mg/kg i.p. once daily for five days): 46%; % platelets vs. Vehicle ([1]; 52 mg/kg i.p. once daily for five days): 63%; IC50 ([2]; initial determination, read-out: IC50 for MAO-A): > 1000 nM"
